The values that follow come from patent US11117900B2 (Vertex Pharmaceuticals Incorporated, priority 2012, dated 2021).

This test concerns HCT116 colorectal cancer cells. In words: Cisplatin sensitization assay (96 h MTS cell viability).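 Also: compound concentration needed to lower the IC50 of Cisplatin alone by a set fold.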 Conditions: Cisplatin sensitization value. The format is cell-based. The method in brief:
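HCT116 cells were dosed simultaneously with compound and cisplatin as a full matrix of 2-fold serial dilutions from 10 μM top final concentration. Incubation was 96 h at 37° C., 5% CO2, followed by 1 h with MTS reagent for the viability read-out. Sensitization values were binned into +++, ++ and + categories.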
Consider `CN1CC[C@@H](OC2CCN(c3c(F)cncc3NC(=O)c3c(N)nn4cc(F)cnc34)CC2)C1` [I-N-132, (R)-2-amino-6-fluoro-N-(5-fluoro-4-(4-((1-methylpyrrolidin-3-yl)oxy)piperidin-1-yl)pyridin-3-yl)pyrazolo[1,5-a]pyrimidine-3-carboxamide], for which the “Cisplatin Sensitization Assay” value is given as “+++ (Compounds with a Cisplatin sensitization value of <0.02 μM are marked with “+++.”)”.

`Nc1nn2cc(F)cnc2c1C(=O)Nc1cnccc1N1CCC(S(=O)(=O)N2CCOCC2)CC1` [I-N-170, 2-amino-6-fluoro-N-(4-(4-(morpholinosulfonyl)piperidin-1-yl)pyridin-3-yl)pyrazolo[1,5-a]pyrimidine-3-carboxamide]: the “Cisplatin Sensitization Assay” value is recorded as “+++ (Compounds with a Cisplatin sensitization value of <0.02 μM are marked with “+++.”)”.

With `CS(=O)(=O)c1ccc(-c2ccncc2NC(=O)c2c(N)nn3cc(F)cnc23)cc1` [I-C-61, 2-amino-6-fluoro-N-(4-(4-(methylsulfonyl)phenyl)pyridin-3-yl)pyrazolo[1,5-a]pyrimidine-3-carboxamide], the “Cisplatin Sensitization Assay” value was “+++ (Compounds with a Cisplatin sensitization value of <0.02 μM are marked with “+++.”)”.

Regarding `CC(=O)N1CCN(c2c(F)cncc2NC(=O)c2c(N)nn3cc(F)cnc23)CC1` [I-N-275, N-(4-(4-acetylpiperazin-1-yl)-5-fluoropyridin-3-yl)-2-amino-6-fluoropyrazolo[1,5-a]pyrimidine-3-carboxamide], the “Cisplatin Sensitization Assay” value is “+++ (Compounds with a Cisplatin sensitization value of <0.02 μM are marked with “+++.”)”.

Take `Nc1nn2cc(F)cnc2c1C(=O)Nc1cnccc1-c1ccc(C(=O)N2CCNCC2)cc1` [I-C-44, 2-amino-6-fluoro-N-(4-(4-(piperazine-1-carbonyl)phenyl)pyridin-3-yl)pyrazolo[1,5-a]pyrimidine-3-carboxamide]: the “Cisplatin Sensitization Assay” value is on record as “+++ (Compounds with a Cisplatin sensitization value of <0.02 μM are marked with “+++.”)”.

Turning to `Nc1nn2cc(F)cnc2c1C(=O)Nc1cncc(F)c1N1CCC(OCCN2CCCC2)CC1` [I-N-167, 2-amino-6-fluoro-N-(5-fluoro-4-(4-(2-(pyrrolidin-1-yl)ethoxy)piperidin-1-yl)pyridin-3-yl)pyrazolo[1,5-a]pyrimidine-3-carboxamide], the “Cisplatin Sensitization Assay” value is reported as “+++ (Compounds with a Cisplatin sensitization value of <0.02 μM are marked with “+++.”)”.

Regarding `Nc1nn2cc(Cl)cnc2c1C(=O)Nc1cnccc1N1CCC(N2CCC3(COC3)C2)CC1` [I-N-99, N-(4-(4-(2-oxa-6-azaspiro[3.4]octan-6-yl)piperidin-1-yl)pyridin-3-yl)-2-amino-6-chloropyrazolo[1,5-a]pyrimidine-3-carboxamide], the “Cisplatin Sensitization Assay” value is “+++ (Compounds with a Cisplatin sensitization value of <0.02 μM are marked with “+++.”)”.

For the compound `N#CCc1cnc2c(C(=O)Nc3cnccc3N3CCCCCC3)c(N)nn2c1` [I-N-79, 2-amino-N-(4-(azepan-1-yl)pyridin-3-yl)-6-(cyanomethyl)pyrazolo[1,5-a]pyrimidine-3-carboxamide], the “Cisplatin Sensitization Assay” value is reported as “++ (Compounds with a Cisplatin sensitization value >0.02 μM but <0.2 μM are marked with “++.”)”.

As for `Nc1nn2cc(Cl)cnc2c1C(=O)Nc1cnccc1OC1CCNCC1` [I-O-80, 2-amino-6-chloro-N-(4-(piperidin-4-yloxy)pyridin-3-yl)pyrazolo[1,5-a]pyrimidine-3-carboxamide], the “Cisplatin Sensitization Assay” value is recorded as “+++ (Compounds with a Cisplatin sensitization value of <0.02 μM are marked with “+++.”)”.

For `CNC1CCN(c2ccncc2NC(=O)c2c(N)nn3cc(Cl)cnc23)CC1` [I-N-87, 2-amino-6-chloro-N-(4-(4-(methylamino)piperidin-1-yl)pyridin-3-yl)pyrazolo[1,5-a]pyrimidine-3-carboxamide], the “Cisplatin Sensitization Assay” value was “++ (Compounds with a Cisplatin sensitization value >0.02 μM but <0.2 μM are marked with “++.”)”.
